One compound from US20100158842A1, “NATURAL SKIN WHITENER: 4-HYDROXY-OXINDOLE-3-ACETIC ACID” (SPECTRUM DYNAMICS LLC, priority 2008, published 2010) can be followed below.

A short description of data set [1]: Storage stability of lyophilized powder. The class given is physicochemical. Particulars: milligram quantities, under vacuum. An excerpt: Given these physical properties, Tasselin A has been formulated in both lotion and cream as described in the Tables III, IV, and V below.
Data set [2] concerns mushroom tyrosinase enzyme. Nature of the data set: Anti-tyrosinase activity assay. It is filed as biochemical. As to conditions: 150 microgram/ml, 30 minute test end-point; FIG. 7. How it is done: For this purpose, a modified assay method of anti-tyrosinase activity described in the literature was employed (Chang T S and Tseng M J., Mar. Sci. Technol., 14: 190-193, 2006). The assay employs mushroom tyrosinase enzyme to enzymatically convert a colorless solution tyrosine to a black melanin product. The anti-tyrosinase activity is measured by the reduction of black color development in the presence of the inhibitor, which in this instance is Tasselin A. FIG. 7 is a graph showing the inhibiting effect of two different concentrations of purified Tasselin A on tyrosinase activity as 50% reduction at a concentration of 150 microgram/ml over the 30 minute test end-point.

The next data set relates to human forearm skin. Briefly: Inhibition of skin irritation induced by 24-hour occlusion with benzalkonium chloride. It is filed as in vivo. Particulars: 0.01% (100 micrograms/milliliter) co-administered with 0.4% benzalkonium chloride, volar forearm, FIG. 5. An excerpt:
The anti-irritant activity of purified Tasselin A has been assessed by determining its ability to inhibit skin irritation induced by 24-hour occlusion of human forearm skin with a solution of 0.4% benzalkonium chloride (BC) with or without inclusion of 0.01% (100 micrograms/milliliter) of purified Tasselin A. FIG. 5 is a photograph of the volar surface of a subject forearm immediately after removal of the occlusive dressing. There are two circled skin areas: A) control site, and B) test site.

Data set [3] is described as follows: DPPH* free-radical scavenging assay. As to conditions: 100 microgram per milliliter in ethanol; FIG. 4. As to the method:
Purified Tasselin A has been assayed and determined its free-radical scavenging activity. FIG. 4 present typical results of standardized 1,1-diphenyl-2-picrylhydrazyl radical (DPPH*) reagent test as previously described (Bonina et al, 2002). This test was previously disclosed and employed on crude corn tassel alcoholic extracts (Wille J J: U.S. Pat. No. 7,399,439). Here we confirm that purified Tasselin A has potent antioxidant activity. A 1.0 mg/ml stock solution of purified Tasselin A in ethanol was diluted with anhydrous ethanol to a final concentration of 100 microgram per milliliter and assayed in the DPPH* free-radical scavenging assay.
For orientation: The DPPH test is a chemical assay of radical scavenging.

A further data set is described as follows: Solubility. The class given is physicochemical. Particulars: water, methanol/ethanol. An excerpt: There is also disclosed here a method of making a cosmetic ingredient with the chemical composition and structure of 4-hydroxy-oxindole-3-acetic acid. The chemical compound was identified in extracts of corn tassels. In particular, seasonally aromatic corn tassels were harvested as previously described in U.S. Pat. No. 7,399,493 with particular attention to harvesting the tassel at the peak time of aroma production. They were collected simply by shaking the tassels directly into collecting sacks conveyed to the laboratory where they are immersed directly into ice-cold absolute alcohol and extracted for 24-48 hours at 0-4° C. Crude alcohol extracts have a light green color and a fragrance reminiscent of bee's wax. The extract is further clarified low speed centrifugation followed by filtration through a 0.4 micron nitrocellulose filter and the resulting sterile solution stored at −20° C. until further needed or then concentrated by vacuum rotary evaporation to obtain a slightly viscous mass. This material served as the starting point for chemical analysis. Dilutions of the ice-cold crude extract was submitted to preliminary assessment of its anti-oxidant activity. High pressure liquid chromatography (HPLC) was employed to determine the principle phenolic components of the tassel extract. […]

Structures are written as SMILES.

Regarding `O=C(O)CC1C(=O)Nc2cccc(O)c21` (centres unmarked) [Tasselin A, 2,3-dihydro-4-hydroxy-2-oxo-1H-indole-3-acetic acid], in data set [1], the “storage as dry powder” value was “successfully lyophilized and stored as a dry powder under vacuum for up to a year”. Besides, in data set [2], the “reduction of tyrosinase activity” value is 50%. Moreover, the “visual scoring of skin irritation (swelling, erythema) at test site” value with human forearm skin is reported as “no swelling or redness”. Further, the “reduction in absorbance measured at 595 nm” value in data set [3] is 40%. Moreover, the solubility result in the data set “Solubility” is “both water and methanol/ethanol soluble”.
